Test results reported in patent US20260152777A1, “METHOD FOR PRODUCING EPIGALLOCATECHIN GALLATE MONOGLUCOSIDE” (GIVAUDAN SA, priority 2022, published 2026).

Assays:
[1] = test system: Normal Human Epidermal Keratinocytes (NHEKs); test: Antioxidant activity: ROS production in keratinocytes stressed with TBP (DCFH-DA probe); assay type: cell-based; conditions: at 200 μM
Protocol: A 96 wells-plate was coated with a collagen I solution at 50 μg/ml. Normal Human Epidermal Keratinocytes (NHEKs) were seeded at 20′000 cells per well with four replicates. Cells were incubated for 24 hours in complete medium (Epilife, Gibco) supplemented with Human keratinocyte growth supplements (HKGS) factor (Gibco) and 1% antibiotics (Sigma) at 37° C. with 5% CO2. […] The evolution of the fluorescence was followed for 1 hour.

[2] = Skin penetration by Raman spectroscopy (ex vivo); assay type: in vitro ADME, human; conditions: human
Protocol: At the end of the incubation period, the skin explants were frozen in Optimal Cutting Temperature (OCT; VWR) at −80° C. and then cut longitudinally using a cryotome with a thickness of 20 μm. For each explant, 3 tissue sections were selected and deposited on a CaF2 support for Raman imaging analysis. The processing of corrected data maps was performed by using a software based on least squares fitting method that operates in the Matlab environment. This method involves mathematical modeling of reference spectra in the overall spectral image to determine the contribution and distribution of these spectra within the image. The reference spectra were the modelled spectra of the following products: Aglycone, glucoside mixture, 4′-O-α-monoglucoside and untreated skin control.

[3] = test system: spontaneous formation of Advanced Glycation End-products (AGEs); test: Anti-glycation in tubo assay (BSA + ribose, fluorescence); assay type: biochemical; conditions: 17 h at 37° C.; for IC50: BSA + ribose, read-out: IC50 in well (concentration which inhibits AGEs formation by half)
Protocol: The anti-glycation effect was evaluated using an in tubo assay to measure the spontaneous formation of Advanced Glycation End-products (AGEs). This assay was conducted on a 96-wells microplate. […] The extracts were diluted in sodium phosphate buffer (0.1 M, pH 7.4). Several dilutions were tested. Each diluted extract was run in triplicate. A standard range of aminoguanidine was used as inhibitor reference (positive control). A mixture of the sodium phosphate buffer and BSA was used to validate the experiment and a mixture of sodium phosphate buffer, BSA and ribose was used as the positive control. Two blanks were carried out for the extract: • with phosphate buffer, BSA and extract • with phosphate buffer, ribose and extract The microplate was agitated and incubated for 17 h at 37° C. The fluorescence reading was performed with ? excitation 340 nm and ? emission 420 nm. The anti-glycation activity of the extract was calculated as follows: [formula] FI: Fluorescence of tested extract; blank extract (ribose or BSA); positive control; negative control. Based on the above measurements and calculation, the IC50, i.e. the concentration of the extract which inhibits AGEs formation by half, was calculated.

[4] = test system: female volunteers with a dark skin type (phototype IV or more) and dull skin; test: Clinical evaluation on African skin: skin color by Chromameter L* parameter; assay type: in vivo, human; conditions: cream with 0.01% of EGCG aglycone, full face twice daily, dark skin type
Protocol: The clinical study was carried out on 85 female volunteers aged from 19 to 47 years, which were divided in three groups: active, placebo and aglycone. The study was performed in South Africa on female volunteers with a dark skin type (phototype IV or more) and dull skin. All participants provided signed informed consent at the beginning of the study. The study was conducted according to the guidelines of the Declaration of Helsinki. […] Skin color evolution was measured after 14, 28 and 56 days using L* parameter measurement by Chromameter®.
The skin color was evaluated by means of a Chromameter CR400, which measures skin color, and the parameter L* (lightness) was recorded. The greater the value, the lighter the skin color. Depending on the test type, at least three or at least 15 readings were taken at each test sub-site for each time interval to serve as the specific pigmentation sport color measurement component of the study. Skin color was analyzed at D0, D14, D28 and D56.
For all studies in vivo, a Shapiro Wilk test was used to verify whether the raw data followed the Gaussian Law. In case of Normally-distributed data, the mean values were compared using either an unpaired or paired t student test. In case of non-Normally-distributed data, a Wilcoxon (paired) and Kruskal-Wallis test followed by a Mann-Whitney U (unpaired) test were used for paired data and unpaired data, respectively.

human skin explants = test: Whitening activity (ex vivo), Fontana-Masson staining for melanin quantification; assay type: cell-based; conditions: at 2%, topical, 7 days
Protocol: Fresh human skin explants were obtained from skin phototype III and VI donors, aged of 46±25 years. […] Kojic acid (Sigma-Aldrich) at 2% was topically applied and incubated under the same conditions, serving as positive control. The untreated condition was treated with the vehicle (distilled water). The medium was renewed every other day. After the end of culture, the skin explants were sampled and put in formalin before being dehydrated and embedded in paraffin for Fontana-Masson staining.
Skin explants fixed in formalin were dehydrated and embedded in paraffin. Sections of 4 μm thickness were dewaxed and then stained by Fontana-Masson silver method for melanin.
Images were collected using an Axio Observer Inverted fluorescence microscope (Zeiss) in bright field mode.
Melanin was quantified using two open source optical imaging software programs. Photomicrographs (jpeg format) of Fontana-Masson tissue sections were opened in GIMP-GNU Image Manipulation Program. The brown-black color signals corresponding to melanin grains on stained sections were selected, copied and pasted into a new image and saved as a jpeg file; this jpeg file consists solely of black/brown (melanin grains) on a white background. This image was subsequently opened using the ImageJ program. The image was then inverted and the mean intensity was obtained.

With `Oc1ccc(C=Cc2cc(O)cc(O)c2)cc1` [Resveratrol] the “reduction of ROS production” value ([1]; 24 h, NHEKs stressed with TBP 5 mM) was 61% and the “ROS, Mean (% of untreated)” value ([1]; TBP column = 100, Untreated = 27.5) was 39 % of untreated.
With `OCC1OC(Oc2c(O)cc(C3Oc4cc(O)cc(O)c4CC3O)cc2O)C(O)C(O)C1O` (stereo not drawn) [epigallocatechin 4′-O-α-monoglucoside, Epigallocatechin 4′-O-α-monoglucoside] the “bioavailability in the skin” value [2] was “much higher bioavailability in the skin than the respective aglycones”.
`N=C(N)NN` [aminoguanidine, reference compound] showed an IC50 [3] of 326 µM.
In the case of `O=C(O[C@@H]1Cc2c(O)cc(O)cc2O[C@@H]1c1cc(O)c(O)c(O)c1)c1cc(O)c(O)c(O)c1` [EGCG aglycone, epigallocatechin gallate], the IC50 [3] is reported as 128 µM, the “Inhibition AGE's” value ([3]; tested concentration 0.109 mM) is reported as 31.95% and the “Inhibition AGE's” value ([3]; tested concentration 0.436 mM) is reported as 59.84%. For the same molecule, the “Inhibition AGE's” value ([3]; tested concentration 2.180 mM) was 93.56%, the “Inhibition AGE's” value ([3]; tested concentration 10.9 mM) was 97.36% and the “L* on uneven skin tone area” value [4] was “slight decrease of L*”. The “global skin color whitening, 15 measurements on hemi face” value [4] was “almost no whitening effect”.
With `O=c1cc(CO)occ1O` [Kojic acid] the “reduction of melanin content compared to untreated” value (human skin explants) was 34%.
